Experimental data from patent US20160060260A1, “BROMODOMAIN INHIBITORS FOR TREATING DISEASE” (Board of Regents, The University of Texas System, priority 2014, published 2016).

Legend:
[1] = biological target: T1, Recombinant human His-tagged Trim24-PHD-bromodomain (Homo sapiens, UniProt O15164); test: Trim24 AlphaScreen Assay; assay type: binding; conditions: 5 nM Trim24 protein, 15 nM biotinylated H3K23ac (1-33aa) peptide
T1 construct: Recombinant human His-tagged Trim24-PHD-bromodomain (produced in-house); made in house
T1 sequence (O15164 824-1006 limits assumed): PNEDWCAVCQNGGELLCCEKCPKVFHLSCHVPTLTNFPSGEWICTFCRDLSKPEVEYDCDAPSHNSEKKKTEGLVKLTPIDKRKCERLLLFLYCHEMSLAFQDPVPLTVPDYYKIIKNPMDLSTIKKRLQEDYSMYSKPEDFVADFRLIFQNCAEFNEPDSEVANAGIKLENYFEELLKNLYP
In short: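 AlphaScreen read-out after 2 h with streptavidin donor and Ni-chelate acceptor beads at 10 ug/mL each, following 1 h room-temperature incubation of compound, His-tagged PHD-bromodomain protein and biotin-H3K23ac (1-33aa) peptide in Hepes pH 7.5 buffer with NaCl and Triton X-100. Signals normalised between no-compound and no-protein wells; IC50 from four-parameter logistic curves.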

[2] = biological target: T2, TRIM24 (Homo sapiens, UniProt O15164); test: BROMOscan DiscoveRx Binding Constant Assay (TRIM24); conditions: qPCR readout
T2 construct: purchased DiscoveRx (BROMOscan); host or cells: T7 phage in E. coli host derived from BL21
T2 sequence (O15164 899-1004 limits assumed): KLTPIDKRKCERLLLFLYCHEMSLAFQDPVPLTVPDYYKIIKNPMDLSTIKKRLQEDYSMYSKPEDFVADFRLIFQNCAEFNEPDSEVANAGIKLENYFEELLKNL
From the text: (§1) Compounds that bind the bromodomain active site and directly (sterically) or indirectly (allosterically) prevent bromodomain binding to the immobilized ligand, will reduce the amount of protein captured on the solid support (Panels A & B). […] Screening “hits” are identified by measuring the amount of bromodomain captured in test versus control samples by using a quantitative, precise and ultra-sensitive qPCR method that detects the associated DNA label. In a similar manner, dissociation constants (Kd's) for test compound-bromodomain interactions are calculated by measuring the amount of bromodomain captured on the solid support as a function of the test compound concentration.
(§2) Bromodomain assays. T7 phage strains displaying bromodomains were grown in parallel in 24-well blocks in an E. coli host derived from the BL21 strain. E. coli were grown to log-phase and infected with T7 phage from a frozen stock (multiplicity of infection=0.4) and incubated with shaking at 32° C. until lysis (90-150 minutes). The lysates were centrifuged (5,000×g) and filtered (0.2 μm) to remove cell debris. Streptavidin-coated magnetic beads were treated with biotinylated small molecule or acetylated peptide ligands for 30 minutes at room temperature to generate affinity resins for bromodomain assays. The liganded beads were blocked with excess biotin and washed with blocking buffer (SeaBlock (Pierce), 1% BSA, 0.05% Tween 20, 1 mM DTT) to remove unbound ligand and to reduce non-specific phage binding. […] Test compounds were prepared as 1000× stocks in 100% DMSO and subsequently diluted 1:10 in monoethylene glycol (MEG) to create stocks at 100× the screening concentration (resulting stock solution is 10% DMSO/90% MEG). The compounds were then diluted directly into the assays such that the final concentration of DMSO and MEG were 0.1% and 0.9%, respectively. All reactions were performed in polystyrene 96-well plates in a final volume of 0.135 ml.
(§3) The beads were then re-suspended in elution buffer (lx PBS, 0.05% Tween 20, 2 μM nonbiotinylated affinity ligand) and incubated at room temperature with shaking for 30 minutes. The bromodomain concentration in the eluates was measured by qPCR.
(§4) An 11-point 3-fold serial dilution of each test compound was prepared in 100% DMSO at 1000× final test concentration. This serial is then diluted to 100× in ethylene glycol and subsequently diluted to 1× in the assay (final DMSO concentration=0.1%, Ethylene glycol concentration=0.9%). […] If the initial Kd determined was <0.169 nM (the lowest concentration tested), the measurement was repeated with a serial dilution starting at a lower top concentration.
(§5) Binding constants (Kd's) were calculated with a standard dose-response curve using the Hill equation: Response=Background+Signal−Background 1+(Kd Hill Slope/DoseHill Slope) The Hill Slope was set to −1. Curves were fitted using a non-linear least square fit with the Levenberg-Marquardt algorithm.

[3] = biological target: T3, BRPF1 (Homo sapiens, UniProt P55201); test: BROMOscan DiscoveRx Binding Constant Assay (BRPF1); conditions: qPCR readout
T3 construct: purchased DiscoveRx (BROMOscan); host or cells: T7 phage in E. coli host derived from BL21
T3 sequence (P55201 628-732 limits assumed): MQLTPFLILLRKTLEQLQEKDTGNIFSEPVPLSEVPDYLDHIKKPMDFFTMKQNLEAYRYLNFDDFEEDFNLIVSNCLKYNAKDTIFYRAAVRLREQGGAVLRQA
From the text: as §1, §2, §3, §4, §5

[4] = biological target: T4, BRPF2 (Homo sapiens, UniProt O95696); test: BROMOscan DiscoveRx Binding Constant Assay (BRPF2); conditions: qPCR readout
T4 construct: purchased DiscoveRx (BROMOscan); host or cells: T7 phage in E. coli host derived from BL21
T4 sequence (O95696 562-666 limits assumed): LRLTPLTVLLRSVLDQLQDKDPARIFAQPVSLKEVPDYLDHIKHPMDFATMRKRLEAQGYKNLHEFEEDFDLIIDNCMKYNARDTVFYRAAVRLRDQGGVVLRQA
From the text: as §1, §2, §3, §4, §5

[5] = biological target: T5, BRPF3 (Homo sapiens, UniProt Q9ULD4); test: BROMOscan DiscoveRx Binding Constant Assay (BRPF3); conditions: qPCR readout
T5 construct: purchased DiscoveRx (BROMOscan); host or cells: T7 phage in E. coli host derived from BL21
T5 sequence (Q9ULD4 589-693 limits assumed): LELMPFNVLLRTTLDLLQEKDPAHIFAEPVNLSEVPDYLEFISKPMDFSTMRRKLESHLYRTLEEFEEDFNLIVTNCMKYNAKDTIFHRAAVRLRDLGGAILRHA
From the text: as §1, §2, §3, §4, §5

| SMILES | IC50 [1] | Kd [2] | Kd [3] | Kd [4] | Kd [5] |
| --- | --- | --- | --- | --- | --- |
| CCCOc1cccc(Oc2cc3c(cc2NS(=O)(=O)c2ccc(OC)c(OC)c2)n(C)c(=O)n3C)c1 [Example 110, N-(1,3-dimethyl-2-oxo-6-(3-propoxyphenoxy)-2,3-dihydro-1H-benzo[d]imidazol-5-yl)-3,4-dimethoxybenzenesulfonamide] | 10 to 100 nM | 1 to 10 nM | 1 to 10 nM | 11 to 100 nM | 11 to 100 nM |
| Cc1nc(S(=O)(=O)Nc2cc3c(cc2Oc2cccc(OCC(C)C)c2)n(C)c(=O)n3C)cn1C [Example 45, N-(6-(3-isobutoxyphenoxy)-1,3-dimethyl-2-oxo-2,3-dihydro-1H-benzo[d]imidazol-5-yl)-1,2-dimethyl-1H-imidazole-4-sulfonamide] | 10 to 100 nM | 1 to 10 nM | 11 to 100 nM | 11 to 100 nM | 11 to 100 nM |
| Cn1c(=O)n(C)c2cc(Oc3cccc(OCC(F)(F)F)c3)c(NS(=O)(=O)c3cccnc3)cc21 [Example 125, N-(1,3-dimethyl-2-oxo-6-(3-(2,2,2-trifluoroethoxy)phenoxy)-2,3-dihydro-1H-benzo[d]imidazol-5-yl)pyridin-3-sulfonamide] | 10 to 100 nM | 1 to 10 nM | 1 to 10 nM | 1 to 10 nM | 11 to 100 nM |
| COCCCOc1cccc(Oc2cc3c(cc2NS(=O)(=O)c2cn(C)c(C)n2)n(C)c(=O)n3C)c1 [Example 46, N-(6-(3-(3-methoxypropoxy)phenoxy)-1,3-dimethyl-2-oxo-2,3-dihydro-1H-benzo[d]imidazol-5-yl)-1,2-dimethyl-1H-imidazole-4-sulfonamide] | 100 to 1000 nM | 11 to 100 nM | 11 to 100 nM | 11 to 100 nM | > 100 nM |
| CCCOc1cc(OCCCCCCN)cc(Oc2cc3c(cc2NS(=O)(=O)c2cn(C)cn2)n(C)c(=O)n3C)c1 [Example 8, N-(6-(3-((6-aminohexyl)oxy)-5-propoxyphenoxy)-1,3-dimethyl-2-oxo-2,3-dihydro-1H-benzo[d]imidazol-5-yl)-1-methyl-1H-imidazole-4-sulfonamide 2,2,2-trifluoroacetate] | 1 to 10 nM | < 1 nM | 1 to 10 nM | 1 to 10 nM | 11 to 100 nM |
